Test results published in PMC4035429 (Neuroscience, 2014).

Assays:
LRP1 [1] = molecular target: LRP1 (Rattus norvegicus, UniProt G3V928); assay: Aβ efflux through Z310 monolayer with LRP1 inhibition; type: cell-based; details: mean±SD
Aβ = details: ref Kanekiyo and Bu, 2009; cited from earlier work
LRP1 [2] = assay: LRP1 knockdown efficiency in Z310 cells by Western blot; type: cell-based, rat; details: 10nM siRNA, LRP1 to β-actin ratio
[3] = LRP1 knockdown by siRNA plus 10mg/ml IVIG, p<0.001, n=3

Sequence of LRP1 (Rattus norvegicus, UniProt G3V928) (G3V928 20-4545): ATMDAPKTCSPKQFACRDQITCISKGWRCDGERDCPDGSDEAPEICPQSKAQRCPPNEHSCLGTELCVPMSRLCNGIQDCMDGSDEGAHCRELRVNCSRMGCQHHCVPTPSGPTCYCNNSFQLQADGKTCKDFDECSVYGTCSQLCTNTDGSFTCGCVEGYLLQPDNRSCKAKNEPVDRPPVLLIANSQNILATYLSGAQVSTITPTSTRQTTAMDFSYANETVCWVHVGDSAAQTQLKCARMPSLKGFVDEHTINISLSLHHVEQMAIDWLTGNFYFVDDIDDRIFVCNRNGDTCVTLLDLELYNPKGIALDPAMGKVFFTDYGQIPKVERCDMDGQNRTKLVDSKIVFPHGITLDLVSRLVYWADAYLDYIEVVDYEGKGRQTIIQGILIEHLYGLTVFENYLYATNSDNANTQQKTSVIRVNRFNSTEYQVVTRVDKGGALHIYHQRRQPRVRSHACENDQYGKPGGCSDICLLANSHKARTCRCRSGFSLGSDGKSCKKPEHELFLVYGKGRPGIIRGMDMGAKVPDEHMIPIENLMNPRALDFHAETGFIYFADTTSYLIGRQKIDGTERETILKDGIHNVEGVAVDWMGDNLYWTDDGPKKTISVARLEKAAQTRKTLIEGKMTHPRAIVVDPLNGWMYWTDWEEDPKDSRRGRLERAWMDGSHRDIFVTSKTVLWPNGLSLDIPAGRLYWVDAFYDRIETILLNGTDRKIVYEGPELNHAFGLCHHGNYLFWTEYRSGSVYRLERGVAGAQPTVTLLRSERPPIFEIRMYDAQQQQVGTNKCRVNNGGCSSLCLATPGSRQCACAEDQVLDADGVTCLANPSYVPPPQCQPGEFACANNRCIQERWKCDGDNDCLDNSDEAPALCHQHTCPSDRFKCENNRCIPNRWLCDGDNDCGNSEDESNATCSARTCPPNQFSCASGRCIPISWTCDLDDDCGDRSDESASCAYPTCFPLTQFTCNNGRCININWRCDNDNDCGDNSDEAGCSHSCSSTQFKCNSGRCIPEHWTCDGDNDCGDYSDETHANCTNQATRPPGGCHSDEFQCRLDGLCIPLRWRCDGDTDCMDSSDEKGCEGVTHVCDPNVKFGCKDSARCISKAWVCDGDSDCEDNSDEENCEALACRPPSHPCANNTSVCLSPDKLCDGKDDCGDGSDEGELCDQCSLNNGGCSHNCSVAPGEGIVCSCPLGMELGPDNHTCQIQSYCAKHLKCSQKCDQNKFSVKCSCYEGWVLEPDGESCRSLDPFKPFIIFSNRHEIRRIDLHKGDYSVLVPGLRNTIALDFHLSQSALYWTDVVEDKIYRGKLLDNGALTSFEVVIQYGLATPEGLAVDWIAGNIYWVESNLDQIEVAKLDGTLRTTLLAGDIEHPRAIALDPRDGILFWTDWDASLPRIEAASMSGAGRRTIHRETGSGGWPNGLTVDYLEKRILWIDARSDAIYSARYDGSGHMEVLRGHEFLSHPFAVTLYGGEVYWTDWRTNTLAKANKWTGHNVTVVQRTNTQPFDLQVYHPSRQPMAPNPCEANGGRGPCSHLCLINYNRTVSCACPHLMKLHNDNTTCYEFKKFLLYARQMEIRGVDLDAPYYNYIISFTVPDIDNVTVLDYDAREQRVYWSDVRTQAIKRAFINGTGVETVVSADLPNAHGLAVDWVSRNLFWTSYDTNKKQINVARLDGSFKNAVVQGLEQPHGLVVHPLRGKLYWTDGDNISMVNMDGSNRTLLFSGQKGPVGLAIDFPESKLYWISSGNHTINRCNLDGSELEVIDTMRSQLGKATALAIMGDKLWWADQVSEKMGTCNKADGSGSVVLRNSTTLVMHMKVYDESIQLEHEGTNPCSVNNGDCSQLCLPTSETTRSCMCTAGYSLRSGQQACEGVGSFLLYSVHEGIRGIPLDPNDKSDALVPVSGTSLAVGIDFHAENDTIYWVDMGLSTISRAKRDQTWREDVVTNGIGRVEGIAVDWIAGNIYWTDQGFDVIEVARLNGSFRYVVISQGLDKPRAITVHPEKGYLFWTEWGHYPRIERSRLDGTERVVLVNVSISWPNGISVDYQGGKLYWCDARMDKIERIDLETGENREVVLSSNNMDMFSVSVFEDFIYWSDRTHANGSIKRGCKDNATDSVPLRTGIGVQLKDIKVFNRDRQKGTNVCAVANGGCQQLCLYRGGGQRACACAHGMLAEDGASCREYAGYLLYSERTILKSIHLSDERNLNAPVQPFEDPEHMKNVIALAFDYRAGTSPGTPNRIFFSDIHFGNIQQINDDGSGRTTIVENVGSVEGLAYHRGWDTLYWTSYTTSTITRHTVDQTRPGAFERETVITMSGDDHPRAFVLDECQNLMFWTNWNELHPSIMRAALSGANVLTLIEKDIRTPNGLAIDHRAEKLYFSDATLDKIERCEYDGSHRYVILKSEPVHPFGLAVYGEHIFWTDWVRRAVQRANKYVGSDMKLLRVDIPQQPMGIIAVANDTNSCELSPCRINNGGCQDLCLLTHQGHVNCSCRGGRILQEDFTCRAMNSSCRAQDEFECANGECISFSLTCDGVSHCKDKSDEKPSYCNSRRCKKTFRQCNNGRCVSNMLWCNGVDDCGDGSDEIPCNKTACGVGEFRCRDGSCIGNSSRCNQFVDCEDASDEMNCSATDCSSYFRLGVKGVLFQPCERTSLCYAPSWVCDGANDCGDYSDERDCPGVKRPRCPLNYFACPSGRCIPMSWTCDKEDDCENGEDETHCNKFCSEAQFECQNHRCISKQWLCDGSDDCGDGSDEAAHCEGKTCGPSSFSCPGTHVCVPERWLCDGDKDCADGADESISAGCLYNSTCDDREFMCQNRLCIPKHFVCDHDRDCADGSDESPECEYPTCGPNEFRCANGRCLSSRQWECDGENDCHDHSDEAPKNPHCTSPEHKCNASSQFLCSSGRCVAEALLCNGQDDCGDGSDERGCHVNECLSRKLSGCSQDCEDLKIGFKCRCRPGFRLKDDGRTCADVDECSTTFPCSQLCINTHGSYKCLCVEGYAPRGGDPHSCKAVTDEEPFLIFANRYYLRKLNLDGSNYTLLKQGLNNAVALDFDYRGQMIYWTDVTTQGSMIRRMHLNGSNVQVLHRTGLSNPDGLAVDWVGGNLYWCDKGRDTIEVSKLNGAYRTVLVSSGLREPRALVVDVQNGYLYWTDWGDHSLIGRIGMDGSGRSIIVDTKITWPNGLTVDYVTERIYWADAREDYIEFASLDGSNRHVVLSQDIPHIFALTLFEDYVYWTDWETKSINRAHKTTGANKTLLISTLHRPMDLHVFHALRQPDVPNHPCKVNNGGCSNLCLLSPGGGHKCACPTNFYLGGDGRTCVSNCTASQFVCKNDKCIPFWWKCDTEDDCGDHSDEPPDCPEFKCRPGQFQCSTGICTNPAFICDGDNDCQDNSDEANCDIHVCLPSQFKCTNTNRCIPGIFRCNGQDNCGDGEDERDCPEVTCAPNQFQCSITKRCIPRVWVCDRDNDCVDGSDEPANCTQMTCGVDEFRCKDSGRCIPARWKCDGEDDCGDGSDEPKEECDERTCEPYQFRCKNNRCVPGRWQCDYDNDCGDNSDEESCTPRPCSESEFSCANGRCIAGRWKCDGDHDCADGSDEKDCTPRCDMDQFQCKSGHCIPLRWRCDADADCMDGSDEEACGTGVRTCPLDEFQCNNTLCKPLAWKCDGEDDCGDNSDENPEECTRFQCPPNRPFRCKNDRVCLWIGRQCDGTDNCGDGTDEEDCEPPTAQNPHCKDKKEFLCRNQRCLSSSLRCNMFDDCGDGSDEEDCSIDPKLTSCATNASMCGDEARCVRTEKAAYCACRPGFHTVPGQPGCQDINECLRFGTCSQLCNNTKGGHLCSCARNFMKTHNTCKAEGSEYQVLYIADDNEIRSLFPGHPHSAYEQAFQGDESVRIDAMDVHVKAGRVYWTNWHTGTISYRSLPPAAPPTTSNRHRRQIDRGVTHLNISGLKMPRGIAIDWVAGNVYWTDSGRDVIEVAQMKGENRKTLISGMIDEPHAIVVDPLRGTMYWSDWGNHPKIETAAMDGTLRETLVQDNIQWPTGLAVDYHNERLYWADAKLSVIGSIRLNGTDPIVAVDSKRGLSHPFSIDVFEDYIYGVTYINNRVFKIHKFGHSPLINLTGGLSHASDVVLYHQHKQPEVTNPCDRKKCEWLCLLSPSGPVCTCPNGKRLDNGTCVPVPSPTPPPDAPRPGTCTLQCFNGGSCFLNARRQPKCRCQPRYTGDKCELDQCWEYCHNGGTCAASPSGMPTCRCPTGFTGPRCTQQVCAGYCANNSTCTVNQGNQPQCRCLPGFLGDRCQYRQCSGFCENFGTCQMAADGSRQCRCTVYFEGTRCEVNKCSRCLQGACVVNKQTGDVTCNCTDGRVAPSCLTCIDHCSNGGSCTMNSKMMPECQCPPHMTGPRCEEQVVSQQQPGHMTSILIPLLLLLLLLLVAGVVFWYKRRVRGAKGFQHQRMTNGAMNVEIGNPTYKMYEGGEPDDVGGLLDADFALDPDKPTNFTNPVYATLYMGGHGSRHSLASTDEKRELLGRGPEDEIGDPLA

RAP: recombinant receptor-associated protein (EMD Millipore), a functional inhibitor of LRP1
IVIG-induced Aβ efflux from inner chambers at 1 hr (LRP1 [1]; 100 nM RAP plus 10mg/ml IVIG, IVIG alone 2.52±0.22, p<0.001, n=5): 1.77 ± 0.1 ng/mL | IVIG-induced Aβ efflux from inner chambers at 3 hrs (LRP1 [1]; 100 nM RAP plus 10mg/ml IVIG, IVIG alone 7.61±0.91, p<0.001, n=5): 5.41 ± 0.92 ng/mL | concentration at which RAP could bind Aβ (Aβ): above 500 nM

LRP1 siRNA: siRNA from Sigma-Aldrich; sense 5′ -CCUAUCUUUGAGAUCCGAA-3′, antisense 5′ -UUCGGAUCUCAAAGAUAGG-3′ (chemistry not given here)
IVIG-induced Aβ efflux from inner chambers after 1 hr Aβ added (LRP1 [1]; [3]): 1.1 ± 0.28 ng/mL | IVIG-induced Aβ efflux from inner chambers after 3 hrs Aβ added (LRP1 [1]; [3]): 2.86 ± 0.86 ng/mL | Aβ concentration in outer chamber 1 hr after Aβ added (LRP1 [1]; LRP1 knockdown by siRNA, without IVIG, 1 μM Aβ, scrambled siRNA control 0.28±0.08, p<0.05, n=3): 0.02 ± 0.004 ng/mL | Aβ concentration in outer chamber 3 hrs after Aβ added (LRP1 [1]; LRP1 knockdown by siRNA, without IVIG, 1 μM Aβ, scrambled siRNA control 4.0±0.31, p<0.05, n=3): 1.17 ± 0.38 ng/mL | reduction of LRP1 at protein expression levels as compared to the scrambled siRNA controls (LRP1 [2]): 84.7%

Aβ1-40: beta-amyloid 1-40 peptide (gift from Eli Lilly) added to the inner chamber at 1 μM
change of TEER between treated and untreated samples (Z310 cells): little change
